The values that follow come from patent publication US4680382A, “Analogues of actinomycin D” (priority 1986, dated 1987).

*1 amine or outer side, *2 acyl side, *3 side chain or, on linkers, in order; H or OH if unused. Where a SMILES comes first, the peptide text is derived from it. Bridges are numbered along the chain shown (N, C = ends). Roman numbers before positions name the chains, in order. [ ]: non-standard residue; d: D form. Actinocin(9to1) = Cc1c2oc3c(C)ccc(C(=O)[*:1])c3nc-2c(C(=O)[*:2])c(N)c1=O; NMeV = CN[C@H](C(=O)O)C(C)C; Sar = CNCC(=O)O

A short description of data set [1]: Maximum tolerated dose (LD10) in tumor-free BDF1 male mice. It counts as in vivo. The settings on record: lethal dose for 10% normal BDF1 male mice, 21 days (LD10); ip days 1, 5 and 9. The method, then: (§1) These analogues were also tested in tumor-free BDF1 male mice for determination of their MTD values (Table VIII). The animals (18-22 g) were given a broad range of doses of drugs in 5% dimethyl sulfoxide-saline on days 1, 5 and 9. Drugs were administered ip and the maximum tolerated doses of agents which caused death in only 10% of the tested animals in 21 days (i.e., LD10) were recorded as MTD. […] However, the MED values of 7-hydroxy-AMD and its precursor AMD-OZL 10a are high and are seven to tenfold of the MED values of 4a and 8a. On the basis of these MED values, the therapeutic indices of 8a and 4a are 70 and 96. The therapeutic index of 2a is 13, of 10a 10, and of AMD only 4.
^c MTD (maximum tolerated dose) is the lethal dose
(milligram/kilogram) for 10% normal BDF1 male mice (18-22 g); animal
calculated from a plot of logdose vs. percent mortality.

The test system of data set [2] is DNA. The data set is described as follows: Viscometry of DNA (test for intercalative binding). The settings on record: increasing [ligand]/DNA base pair ratio. The method, then: The equilibrium binding constants (Kapp and Bapp) of the "reverse" methyl 7a and the "reverse" phenyl 8a were determined from the Scatchard plots of binding isotherms; the Scatchard plots are produced according to the previously described methods using calf-thymus DNA [Sengupta et al, Biochem. Biophys. Acta 521, 89 (1978)]. The Kapp values are 2.5×10^6 and 2.3×10^6 M^-1, respectively; corresponding Bapp values are 0.038 and 0.036. […] But, these "reverse" analogues associate with DNA less strongly; their frequency of binding is also lower compared to that of AMD. However, the "reverse" analogues fail to cause any measurable change in the ratio of the intrinsic viscosity (γ) of DNA with the increasing ratios of [ligand]/DNA base pair (r), even when low molecular weight DNAs (0.5×10^5 to 1.0×10^5) were employed.

The subject of data set [3] is P388/S. Kind of data set: In vivo activity against P388/S (adriamycin sensitive) leukemia, Table VII. Conditions: for P388/S % ILS / P388/S tumor-free survivors/total on day 60: at optimal dose; for P388/S optimal dose: ip, days 1, 5 and 9. Also noted: species or system BDF1 mice. The procedure:
(§2) ^a Male BDF1 mice inoculated ip: 10^6 cells inoculum, day 0.
(§3) Drugs administered in 10% dimethyl sulfoxidesaline on days 1, 5 and 9. %
(§4) ILS = percent increase in life span. Fractions in parentheses = tumorfree
(§5) survivors/total on day 60. P388/S (adriamycin sensitive) and P388/ADR
(§6) (adriamycin resistant) tumors were evaluated in the same experiment with […]

Data set [4] relates to P388/ADR. The data set is described as follows: In vivo activity against P388/adriamycin-resistant leukemia. Also noted: species or system BDF1 mice. Conditions: for P388/ADR optimal dose: ip, days 1, 5 and 9. The method, then:
as §2, §3, §4, §5, §6

Data set [5] relates to rat hepatic microsomes. Kind of data set: Stimulation of adrenochrome formation (superoxide generation) in rat hepatic microsomal incubations. Conditions: for adrenochrome formation: 480 nm, 37° C., no more than 100 μM drug, basal 2.11 ± 0.11; for adrenochrome formation / percentage stimulation of adrenochrome formation over basal rate: no SOD; for adrenochrome formation in presence of SOD: SOD (superoxide dismutase) 5 μg/mL added.

The test system of data set [6] is P388 Leukemia. Kind of data set: Minimum effective dose and therapeutic index vs. P388 leukemia. Conditions: dose giving 45% increase in life span in P388 tumor bearing mice; ip days 1, 5 and 9. Type of data set: in vivo. The method, then: as §1
^a Drugs administered ip once on days 1, 5 and 9 starting 1 day after
tumor implantation. Determinations were made from analysis of plotted
^b MED (minimum effective dose) is the dose (milligram/kilogram)
providing an increase in life span of 45% over control in P388 tumor

The nature of data set [7]: Metabolism of tritiated drugs by rat liver microsomes with NADPH-generating system. It counts as in vitro ADME. The settings on record: for Percent isolated: unconverted: 37° C. The procedure:
A method of using tumor cell sonicates was developed to study the metabolism of the analogues of AMD. By use of sonicated cells, the dilution effects that would occur if flasks of cultured cells were used are avoided. Although the cells are disrupted by this method, their enzyme systems appear to remain active. Large numbers of tumor cells (P388 murine leukemia) were sonicated in Earle's balanced salt solution (EBSS) and were incubated with tritiated AMD and its analogues 7a and 9a (Table II) for 16 hr. In another experiment, the analogues were treated with rat hepatic microsomes at 37° C. for 6 hr in the presence of a NADPH-generating system. The metabolic products were isolated and identified with the following results (Table II). […] In the microsomes, the major metabolites were in unconjugated forms; in the tumor cell homogenates, the major identified metabolites were glucuronide and sulfate conjugated forms. It should be pointed out that in these metabolic experiments, the identification of these glucuronide and/or sulfate conjugates was made only on the basis of the disappearance of the peaks from the HPLC chromatograms upon treatment with deconjugating enzymes glucarase.
The incubation mixture consisted of 500 μg of microsomal protein 1.6 mM NADP^+, 16 mM glucose 6-phosphate, 10.1 U of glucose-6-phosphate dehydrogenase, 12 mM MgCl2, 10 mM sodium phosphate-potassium phosphate (pH 7.4) and 0.4-0.8 mM of tritiated drugs (including AMD) in a final volume of 5.0 mL. The mixtures were incubated at 37° C. for 6 hr, after which the reaction was stopped by chilling at 0° C. The chilled mixtures were filtered by centrifugation in tubes containing centriflow membrane cones (Amicon, 1053, molecular weight cut-off 25000). The filtrates were adjusted to pH 5.0 before extraction with water-saturated ethyl acetate (step A).
Equal aliquots of the aqueous layer (step A) were treated either with equal volumes of glucarase (5 mg/mL) in 0.05M acetate buffer, pH 5.0, overnight at 37° C. under nitrogen in a shaking water bath or with buffer alone (step B). The aqueous fractions from step B were mixed with an extract of the Amicon cone-retained material. The metabolites at each step were separated by HPLC (Table II). For extraction of the high molecular weight protein conjugates and other tissue-associated materials, the cones were soaked in 0.1N NaOH solution overnight at 0° C. and were processed as in the preceding section before gel filtration. A Sephacryl S-200 superfine column, 1.0× 60 cm, was made in 6M guanidine hydrochloride, pH 5.0, and the lyophilized material in minimum water, pH 7.0, was added to the top of the column and eluted overnight with 6M guanidine hydrochloride, pH 5.0, at a flow rate of 2 cm/hr. A 2% solution of blue dextran 2000 (100 μL, Pharmacia) was added to the column for calibration. Fractions were collected, and the distribution of the material in the fractions was determined by liquid scintillation counting. […] For assay of metabolites, a Varian Moden 5020 gradient liquid chromatograph equipped with a CD-111L chromatography data system was used.

`Cc1c2oc3c(C)c(O)c(N)c(C(=O)NC4C(=O)NC(C(C)C)C(=O)N5CCCC5C(=O)N(C)CC(=O)N(C)C(C(C)C)C(=O)OC4C)c3nc-2c(C(=O)NC2C(=O)NC(C(C)C)C(=O)N3CCCC3C(=O)N(C)CC(=O)N(C)C(C(C)C)C(=O)OC2C)c(N)c1=O` (stereo not shown) [4a, 7-Hydroxy-8-amino-actinomycin D]: the “MTD (maximum tolerated dose)” value in data set [1] turned out to be 2.40 milligram/kilogram. In addition, the “change in intrinsic viscosity of DNA / intercalative binding by viscometry” value in data set [2] is “lack of intercalative binding”. For the same compound, in data set [3], the “P388/S % ILS” value was determined as 382%, the “P388/S tumor-free survivors/total on day 60” value is recorded as 4/8 and the P388/S optimal dose is 0.6 mg/kg. Further, in data set [4] (at optimal dose), the “P388/ADR % ILS” value worked out at 176% and the “P388/ADR tumor-free survivors/total on day 60” value is reported as 3/8. In data set [4], the P388/ADR optimal dose was 1.2 mg/kg. In data set [5], the adrenochrome formation is listed as 19.3 ± 1.04 nmol min^-1 (mg of protein)^-1, the “adrenochrome formation in presence of SOD” value is given as “inhibited” and the “percentage stimulation of adrenochrome formation over basal rate” value (shortened to “percentage stimulation”) worked out at 815%. Also, the “MED (minimum effective dose)” value in data set [6] worked out at 0.025 milligram/kilogram.

Regarding `Cc1nc2c(C(=O)NC3C(=O)NC(C(C)C)C(=O)N4CCCC4C(=O)N(C)CC(=O)N(C)C(C(C)C)C(=O)OC3C)c3nc4c(C(=O)NC5C(=O)NC(C(C)C)C(=O)N6CCCC6C(=O)N(C)CC(=O)N(C)C(C(C)C)C(=O)OC5C)c(N)c(=O)c(C)c-4oc3c(C)c2o1` [7a, 7-Amino-2,9,11-trimethyl-8H-8-oxooxazolo [4,5-b]phenoxazine 4,6-bis[carbonyl-L-threonyl-D-valyl-L-prolylsarcosyl-L-N-methylvaline-(threonine hydroxyl)] lactone], in data set [7] (rat liver microsomes (M), 6 hr), the “Percent isolated: "tissue" bound” value turned out to be 3.7%, the “Percent isolated: protein conjugates” value amounted to 3.5%, the “Percent isolated: unidentified metabolite” value is reported as 8.5% and the “Percent metabolite isolated: 4a glucuronide and/or sulfate” value is “nil”. Besides, in data set [7] (rat liver microsomes (M), 6 hr), the “Percent metabolite isolated: "symmetrical" AMD (4a)” value was determined as 62.5% and the “Percent isolated: unconverted” value is reported as 21%. Besides, in data set [5], the adrenochrome formation is 6.04 ± 0.19 nmol min^-1 (mg of protein)^-1, the “adrenochrome formation in presence of SOD” value was “inhibited” and the “percentage stimulation” value is reported as 186%.

`Cc1nc2c(C(=O)NC3C(=O)NC(C(C)C)C(=O)N4CCCC4C(=O)N(C)CC(=O)N(C)C(C(C)C)C(=O)OC3C)c3nc4c(C(=O)NC5C(=O)NC(C(C)C)C(=O)N6CCCC6C(=O)N(C)CC(=O)N(C)C(C(C)C)C(=O)OC5C)cc(=O)c(C)c-4oc3c(C)c2o1` (stereo not shown) [9a]: in data set [7] (rat liver microsomes (M), 6 hr), the “Percent isolated: "tissue" bound” value was determined as 5.5%, the “Percent isolated: protein conjugates” value is 9.5%, the “Percent isolated: unidentified metabolite” value is on record as 6% and the “Percent metabolite isolated: 2a glucuronide and/or sulfate” value is recorded as “nil”. Moreover, in data set [7] (rat liver microsomes (M), 6 hr), the “Percent metabolite isolated: 7-hydroxy-AMD (2a)” value is recorded as 40.5% and the “Percent isolated: unconverted” value is 38.5%. In addition, in data set [5], the adrenochrome formation is on record as 4.36 ± 0.21 nmol min^-1 (mg of protein)^-1, the “adrenochrome formation in presence of SOD” value is on record as “inhibited” and the “percentage stimulation” value was 106%.

Consider `Cc1c2oc3c(C)ccc(C(=O)N[C@@H]4C(=O)N[C@H](C(C)C)C(=O)N5CCC[C@H]5C(=O)N(C)CC(=O)N(C)[C@@H](C(C)C)C(=O)O[C@@H]4C)c3nc-2c(C(=O)N[C@@H]2C(=O)N[C@H](C(C)C)C(=O)N3CCC[C@H]3C(=O)N(C)CC(=O)N(C)[C@@H](C(C)C)C(=O)O[C@@H]2C)c(N)c1=O` [AMD, Actinomycin D] (I: T[dV]P[Sar][NMeV] / II: T[dV]P[Sar][NMeV]; ester I:1-I:C, II:1-II:C; linker I:N-II:N via Actinocin(9to1)), for which the “Percent isolated: unconverted” value in data set [7] (rat liver microsomes (M), 6 hr) is reported as 100%. Further, in data set [7] (tumor cell homogenate and rat liver microsomes), the “formation of metabolite or conjugate” value is recorded as “did not form any detectable metabolite or conjugate”. Also, the “MTD (maximum tolerated dose)” value in data set [1] is listed as 0.25 milligram/kilogram. Further, the “change in intrinsic viscosity of DNA / intercalative binding by viscometry” value in data set [2] is on record as “steady rise in the value of γ”. Also, in data set [3], the “P388/S % ILS” value came out at 132%, the “P388/S tumor-free survivors/total on day 60” value is 1/8 and the P388/S optimal dose is listed as 0.25 mg/kg. In addition, in data set [4] (at optimal dose), the “P388/ADR % ILS” value was found to be 22%. In data set [4], this compound registered a P388/ADR optimal dose of 0.25 mg/kg. In data set [5], the adrenochrome formation is recorded as 2.29 ± 0.33 nmol min^-1 (mg of protein)^-1, the “adrenochrome formation in presence of SOD” value is listed as “inhibited” and the “percentage stimulation” value was found to be 8.5%. In addition, the “MED (minimum effective dose)” value in data set [6] is listed as 0.0625 milligram/kilogram.
